According to ChEMBL document CHEMBL1130043, “Chemometric methodologies in a quantitative structure-activity relationship study: the antibacterial activity of 6-aminoquinolones” (1997):

Tests used:
Format in all cases: functional
Escherichia coli [1] = assay: Antibacterial activity against Escherichia coli ISF 432(Gram negative) strain.
Staphylococcus aureus [2] = assay: Antibacterial activity against Staphylococcus aureus ATCC 6538 (Gram positive) strain.
Klebsiella pneumoniae = assay: Antibacterial activity against Klebsiella pneumoniae ATCC 10031 (Gram negative) strain.
Providencia stuartii = assay: Antibacterial activity against Providencia stuartii CNUR 5(Gram negative) strain.
Pseudomonas aeruginosa [3] = assay: Antibacterial activity against Pseudomonas aeruginosa ATCC 9027(Gram negative) strain.
[4] = system: Staphylococcus epidermidis; assay: The compound was tested in vitro for antibacterial activity against Staphylococcus epidermidis CPHL A2 (Gram positive) strain
Shigella = assay: Antibacterial activity against Shigella enteritidis (Gram negative) strain.
Enterobacter cloacae = assay: Antibacterial activity against Enterobacter cloacae OMNFI 174 (Gram negative) strain.
Enterococcus faecalis = assay: Antibacterial activity against Streptococcus faecalis LEP Br (Gram positive) strain.
Staphylococcus aureus [5] = assay: Antibacterial activity against Staphylococcus aureus MPR 5 (Gram positive) strain.
Escherichia coli [6] = assay: Antibacterial activity against Escherichia coli ATCC 8739(Gram negative) strain.
[7] = system: Staphylococcus epidermidis; assay: Antibacterial activity against Staphylococcus epidermidis HCF Berset C (Gram positive) strain.
[8] = system: Acinetobacter calcoaceticus; assay: Antibacterial activity against Acinetobacter calcoaceticus OSMPV 113 (Gram negative) strain.
[9] = system: Staphylococcus epidermidis; assay: The compound was tested in vitro for antibacterial activity against Staphylococcus epidermidis CPHL A2 (Gram positive) strain.
[10] = system: Staphylococcus epidermidis; assay: Antibacterial activity against Staphylococcus epidermidis CPHL A2 (Gram positive) strain, activity is expressed as log2MIC.
[11] = system: Acinetobacter calcoaceticus; assay: The compound was tested for in vitro antibacterial activity against Acinetobacter calcoaceticus OSMPV 113(Gram negative) strain.
Pseudomonas aeruginosa [12] = assay: The compound was tested for in vitro antibacterial activity against Pseudomonas aeruginosa ATCC 9027(Gram negative) strain.
Escherichia coli [13] = assay: The compound was tested for in vitro antibacterial activity against Escherichia coli ATCC 8739 (Gram negative) strain.
[14] = system: Acinetobacter calcoaceticus; assay: The compound was tested for in vitro antibacterial activity against Acinetobacter calcoaceticus OSMPV 113 (Gram negative) strain.
Staphylococcus aureus [15] = assay: The compound was tested for in vitro antibacterial activity against Staphylococcus aureus ATCC 6538 (Gram positive) strain.
Escherichia coli [16] = assay: The compound was tested for in vitro antibacterial activity against Escherichia coli ISF 432 (Gram negative) strain.
Staphylococcus aureus [17] = assay: The compound was tested for in vitro antibacterial activity against Staphylococcus aureus MPR 5 (Gram positive) strain.
Pseudomonas aeruginosa [18] = assay: The compound was tested for in vitro antibacterial activity against Pseudomonas aeruginosa ATCC 9027 (Gram negative) strain.

Compound | Log2 MIC (Escherichia coli [1]) | Log2 MIC (Staphylococcus aureus [2]) | Log2 MIC (Klebsiella pneumoniae) | Log2 MIC (Providencia stuartii) | Log2 MIC (Pseudomonas aeruginosa [3]) | Log2 MIC [4] | Log2 MIC (Shigella) | Log2 MIC (Enterobacter cloacae) | Log2 MIC (Enterococcus faecalis) | Log2 MIC (Staphylococcus aureus [5]) | Log2 MIC (Escherichia coli [6]) | Log2 MIC [7] | Log2 MIC [8] | other results
Cc1c(N2CCN(C)CC2)c(N)cc2c(=O)c(C(=O)O)cn(C3CC3)c12 | 12 | 8 | 12 | 6 | 6 | 7 | 11 | 10 | 5 | 8 | 12 | 7 |  | 
CC(=O)NC1CCN(c2c(N)cc3c(=O)c(C(=O)O)cn(C4CC4)c3c2C)C1 (stereo not drawn) | 10 | 3 | 9 | 2 | 3 | 3 | 5 | 5 | 1 | 3 | 10 | 3 | 5 | 
CC(=O)NC1CCN(c2cc3c(cc2N)c(=O)c(C(=O)O)cn3C2CC2)C1 (stereo not drawn) | 5 | 0 | 5 | 0 | 0 | 0 | 0 | 0 | 0 | 0 | 5 | 0 | 0 | 
Cc1c(N2CCOCC2)c(N)cc2c(=O)c(C(=O)O)cn(C3CC3)c12 | 12 | 10 | 12 | 8 | 7 | 9 | 10 | 10 | 7 | 10 | 12 | 10 |  | 
Cc1c(N2CCC(O)CC2)c(N)cc2c(=O)c(C(=O)O)cn(C3CC3)c12 | 12 | 11 | 12 | 7 | 6 | 11 | 9 | 8 | 8 | 10 | 7 | 11 | 10 | 
Nc1cc2c(=O)c(C(=O)O)cn(C3CC3)c2cc1Cl | 6 | 0 | 6 | 1 | 0 |  | 3 | 3 | 0 | 0 | 6 | 1 | 0 | Log2 MIC [9]: 0
CN1CCN(c2cc3c(cc2N)c(=O)c(C(=O)O)cn3C(C)(C)C)CC1 | 11 | 6 | 11 | 5 | 5 |  | 7 | 7 | 2 | 6 | 11 | 5 | 5 | Log2 MIC [10]: 6
Cc1c(N2Cc3ccccc3C2)c(N)cc2c(=O)c(C(=O)O)cn(C3CC3)c12 | 13 | 13 | 11 | 11 | 8 | 13 | 9 | 9 | 9 | 13 | 13 | 12 |  | 
Cc1c(N2CCCC2)c(N)cc2c(=O)c(C(=O)O)cn(C3CC3)c12 | 7 | 5 | 8 | 1 | 0 | 3 | 1 | 1 | 1 | 5 | 2 | 3 | 3 | 
Nc1cc2c(=O)c(C(=O)O)cn(C3CC3)c2cc1N1CCC(N)C1 (stereo not drawn) | 8 | 0 | 7 | 0 | 3 | 0 | 3 | 3 | 0 | 0 | 7 | 0 | 0 | 
CN1CCN(c2nc3c(c(N)c2N)c(=O)c(C(=O)O)cn3C2CC2)CC1 | 13 | 6 | 13 | 8 | 4 | 6 | 8 | 9 | 4 | 6 | 9 | 6 | 8 | 
Cc1c(N2CCSCC2)c(N)cc2c(=O)c(C(=O)O)cn(C3CC3)c12 | 12 | 11 | 12.5 | 6 | 7 | 10 | 10 | 9 | 8 | 11 | 9 | 10 | 10 | 
Cc1c(N2CCNC(C)C2)c(N)cc2c(=O)c(C(=O)O)cn(C3CC3)c12 (stereo not drawn) | 12 | 7 | 12 | 6 | 7 | 7 | 11 | 10 | 5 | 7 | 10 | 7 | 6 | 
O=C(O)c1cn(C2CC2)c2cc(N3CCNCC3)c(F)cc2c1=O [CIPROFLOXACIN] |  |  | 12 | 11 | 11 | 11 |  |  | 8 |  |  |  | 11 | Log2 MIC [11]: 11; Log2 MIC (Pseudomonas aeruginosa [12]): 11; Log2 MIC [10]: 11
CN1CCN(c2c(F)cc3c(=O)c(C(=O)O)cn4c3c2SCC4)CC1 [RUFLOXACIN] |  |  | 9 | 6 |  |  | 10 | 8 | 5 |  |  | 7 |  | Log2 MIC (Escherichia coli [13]): 9; Log2 MIC [14]: 7; Log2 MIC (Staphylococcus aureus [15]): 8; Log2 MIC (Escherichia coli [16]): 9; Log2 MIC [10]: 8; Log2 MIC (Staphylococcus aureus [17]): 8; Log2 MIC (Pseudomonas aeruginosa [18]): 5
